Here are results for 1 compound from BindingDB's records for PubMed 7969084 (Merck Sharp and Dohme Research Laboratories, 1994).

The assay addresses T1, Cholecystokinin (Sus scrofa, UniProt P01356).
T1 sequence (P01356 whole entry): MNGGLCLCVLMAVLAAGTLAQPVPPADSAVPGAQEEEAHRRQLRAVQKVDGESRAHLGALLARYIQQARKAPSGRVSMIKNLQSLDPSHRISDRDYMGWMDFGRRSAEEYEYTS

Each structure is given as a SMILES string.

As for `Cc1cccc(NC(=O)N[C@@H]2N=C(N3CCCCCC3)c3ccccc3N(C)C2=O)c1` [L-738416], the inhibition constant Ki (in general, a measure of affinity in units of concentration, obtained from inhibition or displacement) is 1.2 nM.
